Experimental data as given in patent US20240190872A1, “FABI INHIBITORS FOR GRAM-NEGATIVE PATHOGENS” (THE BOARD OF TRUSTEES OF THE UNIVERSITY OF ILLINOIS, priority 2021, published 2024).
Values after ≈ are worked out from the molar mass of the structure shown.

Tests used:
Format in all cases: cell-based
K. pneumoniae BAA 2472 = test: microbe, parasite or virus in culture; details: clinical isolate
Procedure: (§1) The compounds synthesized, shown in Table 1, were evaluated against Gram-positive and Gram-negative reference strains (S. aureus 29213 and E. coli MG1655, respectively), as well as an efflux deficient E. coli strain (ΔtolC, JW5503).
(§2) Bacterial strains. S. aureus ATCC 29213, E. coli MG1655, E. coli BAA-2340, E. coli BAA-2469, E. coli BAA-2471, E. cloacae BAA-2341, E. cloacae BAA-2468, K. pneumoniae BAA-1705, K. pneumoniae BAA-2342, K. pneumoniae BAA-2470, K. pneumoniae BAA-2472, and K. pneumoniae BAA-2473 were obtained from ATCC. E. coli JW5503 and E. coli JW3596 were obtained from the KEIO Collection. E. cloacae ATCC 29893 was provided by W. van der Donk (UIUC). E. coli AR-0346, E. coli AR-0349, E. coli AR-0493, E. coli AR-0495, and K. pneumoniae AR-0347 were obtained from the CDC and FDA AR Isolate Bank. E. coli F20987, E. coli M66623, E. cloacae S28901.1, K. pneumoniae M14723, K. pneumoniae M67198, K. pneumoniae M67297, K. pneumoniae S20595, K. pneumoniae S47889, A. baumannii W41979, A. baumannii F19521, A. baumannii M13100, and A. baumannii WO22 were obtained from the University of Illinois Chicago Medical School. A. baumannii KB304, A. baumannii KB343, and A. baumannii KB357 were provided by J. Quale.
(§3) Antimicrobial susceptibility tests. Susceptibility testing was performed in biological triplicate, using the micro-dilution broth method as outlined by the Clinical and Laboratory Standards Institute. Bacteria were cultured with cation-adjusted Muller-Hinton broth (Sigma-Aldrich, Cat# 90922) in round-bottom 96-well plates (Corning, Cat# 3788). Human serum (pooled gender, 0.2 μm filtered) was purchased from BioIVT (Hicksville, NY).

A. baumannii AR 0033 = test: microbe, parasite or virus in culture; details: clinical isolate
Procedure: as §3

A. baumannii AR 0273 = test: microbe, parasite or virus in culture; details: clinical isolate
Procedure: as §3

A. baumannii AR 0299 = test: microbe, parasite or virus in culture; details: clinical isolate
Procedure: as §3

A. baumannii AR 0313 = test: microbe, parasite or virus in culture; details: clinical isolate
Procedure: as §3

E. coli AR 0048 = test: microbe, parasite or virus in culture; details: clinical isolate
Procedure: as §3

E. coli AR 0085 = test: microbe, parasite or virus in culture; details: clinical isolate
Procedure: as §3

K. pneumoniae AR 0066 = test: microbe, parasite or virus in culture; details: clinical isolate
Procedure: as §3

K. pneumoniae AR 0113 = test: microbe, parasite or virus in culture; details: clinical isolate
Procedure: as §3

K. pneumoniae AR 0560 = test: microbe, parasite or virus in culture; details: clinical isolate
Procedure: as §3

S. aureus ATCC 29213 = test: Antimicrobial susceptibility test (MIC), micro-dilution broth; details: for MIC S. aureus 29213: S. aureus ATCC 29213
Description: as §2, §3

E. coli ΔtolC (JW5503) = details: for MIC E. coli ΔtolC: efflux deficient E. coli ΔtolC; for % @ 0.5 (in brackets after MIC): 0.5 μg/mL
Procedure: as §1, §2, §3

E. coli MG1655 = test: Antimicrobial susceptibility test (MIC); details: for % @ 32 (in brackets after MIC): E. coli MG1655, 32 μg/mL
Description: as §2, §3

Structure (SMILES) | MIC S. aureus 29213 (S. aureus ATCC 29213) [µg/mL] | MIC E. coli ΔtolC (E. coli ΔtolC (JW5503)) [µg/mL] | MIC E. coli MG1655 (E. coli MG1655) [µg/mL] | other results
Cc1c(CN(C)C(=O)/C=C/c2cnc3c(c2)CC2(CC(CN)C2)C(=O)N3)oc2ccccc12 (stereo not drawn) |  |  |  | MIC K. pneumoniae BAA 2472 (K. pneumoniae BAA 2472): 32 µg/mL (≈ 72 µM); MIC A. baumannii AR 0033 (A. baumannii AR 0033): 32 µg/mL (≈ 72 µM); MIC A. baumannii AR 0273 (A. baumannii AR 0273): >32 µg/mL; MIC A. baumannii AR 0299 (A. baumannii AR 0299): >32 µg/mL; MIC A. baumannii AR 0313 (A. baumannii AR 0313): >32 µg/mL; MIC E. coli AR 0048 (E. coli AR 0048): 32 µg/mL (≈ 72 µM); MIC E. coli AR 0085 (E. coli AR 0085): 16 µg/mL (≈ 36 µM); MIC K. pneumoniae AR 0066 (K. pneumoniae AR 0066): 32 µg/mL (≈ 72 µM); MIC K. pneumoniae AR 0113 (K. pneumoniae AR 0113): 32 µg/mL (≈ 72 µM); MIC K. pneumoniae AR 0560 (K. pneumoniae AR 0560): 32 µg/mL (≈ 72 µM)
Cc1c(CN(C)C(=O)/C=C/c2cnc3c(c2)CC(N)C(=O)N3)oc2cccc(F)c12.Cl (stereo not drawn) | 0.031 | 0.125 | 8 | 
Cc1c(CN(C)C(=O)/C=C/c2cnc3c(c2)CCC(N)C(=O)N3)oc2ccccc12 (racemic) [drawing 108] | 0.016 (≈ 0.0396 µM) | 0.031 (≈ 0.0766 µM) | 4 (≈ 9.89 µM) | 
Cc1c(CN(C)C(=O)/C=C/c2cnc3c(c2)CC2(CC(N)C2)C(=O)N3)oc2ccccc12 (stereo not drawn) | 0.016 (≈ 0.0372 µM) | 0.062 (≈ 0.144 µM) | 4 (≈ 9.29 µM) | 
NC1CCc2cc(C=CC(=O)N3CC4C=C(c5ccccc5)CC4C3)cnc2NC1=O (mixture of isomers) | 0.031 | 0.062 | 8 | 
Cc1c(CN(C)C(=O)/C=C/c2cnc3c(c2)CCC(CCN)C(=O)N3)oc2ccccc12 (racemic) [(±)-13] | 0.062 (≈ 0.143 µM) | 0.125 (≈ 0.289 µM) | 32 (≈ 74 µM) | 
Cc1c(CN(C)C(=O)/C=C/c2cnc3c(c2)CCC(N)C(=O)N3)oc2ccccc12 (single isomer, unassigned) [drawing 110] | 0.004 to 0.008 | 0.031 (≈ 0.0766 µM) | 2 (≈ 4.94 µM) | % @ 0.016 (in brackets after MIC) (E. coli ΔtolC (JW5503); E. coli ΔTolC, 0.016 μg/mL): 40-95%
NC1Cc2cc(C=CC(=O)N3CC4C=C(c5ccccc5)CC4C3)cnc2NC1=O (mixture of isomers) | 0.062 | 0.062 | 16 | 
Cc1c(CN(C)C(=O)/C=C/c2ccc3c(c2)CCC(N)C(=O)N3)oc2ccccc12 (single isomer, unassigned) [Isomer 1] |  |  |  | MIC K. pneumoniae BAA 2472 (K. pneumoniae BAA 2472): >32 µg/mL; MIC A. baumannii AR 0033 (A. baumannii AR 0033): >32 µg/mL; MIC A. baumannii AR 0273 (A. baumannii AR 0273): >32 µg/mL; MIC A. baumannii AR 0299 (A. baumannii AR 0299): >32 µg/mL; MIC A. baumannii AR 0313 (A. baumannii AR 0313): >32 µg/mL; MIC E. coli AR 0048 (E. coli AR 0048): >32 µg/mL; MIC E. coli AR 0085 (E. coli AR 0085): >32 µg/mL; MIC K. pneumoniae AR 0066 (K. pneumoniae AR 0066): >32 µg/mL; MIC K. pneumoniae AR 0113 (K. pneumoniae AR 0113): >32 µg/mL; MIC K. pneumoniae AR 0560 (K. pneumoniae AR 0560): >32 µg/mL
Cc1c(CN(C)C(=O)/C=C/c2cnc3c(c2)CC(N)C(=O)N3)oc2c(F)cccc12.Cl (stereo not drawn) | 0.016 | 0.062 | 8 | % @ 4 (in brackets after MIC) (E. coli MG1655; E. coli MG1655, 4 μg/mL): 50-80%
Cc1c(CN(C)C(=O)/C=C/c2cnc3c(c2)CCC(=O)N3)oc2ccccc12 [drawing 82, reference compound] | 0.008 to 0.016 | 0.031 (≈ 0.0826 µM) |  | 
Cc1c(CN(C)C(=O)/C=C/c2cnc3c(c2)CCC(N)C(=O)N3)oc2ccccc12 (racemic) [drawing 87] | 0.016 (≈ 0.0396 µM) | 0.031 (≈ 0.0766 µM) | 4 (≈ 9.89 µM) | 
Cc1c(CN(C)C(=O)/C=C/c2cnc3c(c2)CC(CN)C(=O)N3)oc2ccccc12.Cl (racemic) | 0.031 | 0.125 | 8 | 
Cc1c(CN(C)C(=O)C=Cc2cnc3c(c2)CC2(CC(CN)C2)C(=O)N3)oc2ccccc12 (mixture of isomers) [(±)-7] | 0.031 | 0.125 | 16 | 
Cc1c(CN(C)C(=O)/C=C/c2cnc3c(c2)CC(N)C(=O)N3)oc2cc(F)ccc12.Cl (stereo not drawn) | 0.062 | 0.5 | > 32 | % @ 32 (in brackets after MIC) (E. coli MG1655): 65%
Cc1c(CN(C)C(=O)/C=C/c2cnc3c(c2)CC(CCN)C(=O)N3)oc2ccccc12.Cl (racemic) | 0.016 | 0.062 | 8 | 
Cc1c(CN(C)C(=O)/C=C/c2cnc3c(c2)CC(N)C(=O)N3)oc2ccccc12.Cl (racemic) [reference compound] | 0.03125 | 0.062 | 4 | 
Cc1c(CN(C)C(=O)/C=C/c2cnc3c(c2)CCC(N)C(=O)N3)oc2ccccc12 (single isomer, unassigned) [drawing 109] | 0.125 to 0.250 | > 1 | > 32 | % @ 1 (in brackets after MIC) (E. coli ΔtolC (JW5503); E. coli ΔTolC, 1 μg/mL): 50%; % @ 32 (in brackets after MIC) (E. coli MG1655): 20%
Cc1c(CN(C)C(=O)/C=C/c2cnc3c(c2)CC(NCCN)C(=O)N3)oc2ccccc12.Cl (stereo not drawn) | 0.5 | 1 | > 32 | % @ 0.25 (in brackets after MIC) (S. aureus ATCC 29213; S. aureus ATCC 29213, 0.25 μg/mL): 80%; % @ 0.5 (in brackets after MIC) (E. coli ΔtolC (JW5503); E. coli ΔTolC): 50%; % @ 32 (in brackets after MIC) (E. coli MG1655): 35%
Cc1c(CN(C)C(=O)/C=C/c2cnc3c(c2)CC(NCCCN)C(=O)N3)oc2ccccc12.O=CO (stereo not drawn) | 0.250 | 0.5 | >32 | 
Cc1c(CN(C)C(=O)C=Cc2cnc3c(c2)CC2(CCC(CN)CC2)C(=O)N3)oc2ccccc12 (mixture of isomers) [(±)-9] | 0.031 | 0.062 | 16 | 
Cc1c(CN(C)C(=O)C=Cc2cnc3c(c2)CC2(CCC(N)CC2)C(=O)N3)oc2ccccc12 (mixture of isomers) [(±)-8] | 0.016 | 0.062 | 16 | 
Cc1c(CN(C)C(=O)/C=C/c2cnc3c(c2)CC(N)C(=O)N3)oc2ccc(F)cc12.Cl (stereo not drawn) | 0.125 | 1 | > 32 | % @ 0.062 (in brackets after MIC) (S. aureus ATCC 29213; S. aureus ATCC 29213, 0.062 μg/mL): 60%; % @ 0.5 (in brackets after MIC) (E. coli ΔtolC (JW5503); E. coli ΔTolC): 60%; % @ 32 (in brackets after MIC) (E. coli MG1655): 40%
